Assay results taken from patent EP0377642B1, “HERBICIDES FOR WEED CONTROL IN RICE” (E.I. DU PONT DE NEMOURS AND COMPANY, priority 1987, dated 1989).

How the values were obtained:
PS = assay: Herbicidal efficacy in relation to application timing in Indonesia (Table 5); type: in vivo
Source text: (§1) Methyl 2-[[[[(4-methoxy-6-methyl-1,3,5-triazin-2-yl)amino]carbonyl]amino]sulfonyl]benzoate (Compound 1) and mixtures thereof with other compounds were applied as a spray (using a hand sprayer) to rice (either transplanted or direct seeded) in several rice growing areas in Southeast Asia and in the U.S. Tables 1-28 contain the results of these tests and clearly exemplify the utility of this invention. The details of each application are included in the appropriate table. [drawing 2]

CI = assay: as above; type: in vivo
Source text: as §1

## COC(=O)c1ccccc1S(=O)(=O)NC(=O)Nc1nc(C)nc(OC)n1 [Compound 1, Methyl 2-[[[[(4-methoxy-6-methyl-1,3,5-triazin-2-yl)amino]carbonyl]amino]sulfonyl]benzoate]
PS; 3 WAT, 6 GAI/HA, evaluation 3
  % CONTROL PS: 0%
PS; 3 WAT, 8 GAI/HA, evaluation 1
  % CONTROL PS: 0%
PS; 3 WAT, 8 GAI/HA, evaluation 2
  % CONTROL PS: 0%
PS; 3 WAT, 8 GAI/HA, evaluation 3
  % CONTROL PS: 0%
PS; 4 WAT, 2 GAI/HA, evaluation 1
  % CONTROL PS: 0%
PS; 4 WAT, 2 GAI/HA, evaluation 2
  % CONTROL PS: 0%
PS; 4 WAT, 2 GAI/HA, evaluation 3
  % CONTROL PS: 0%
PS; 4 WAT, 3 GAI/HA, evaluation 1
  % CONTROL PS: 0%
PS; 4 WAT, 3 GAI/HA, evaluation 2
  % CONTROL PS: 0%
PS; 4 WAT, 3 GAI/HA, evaluation 3
  % CONTROL PS: 0%
PS; 4 WAT, 4 GAI/HA, evaluation 1
  % CONTROL PS: 0%
PS; 4 WAT, 4 GAI/HA, evaluation 2
  % CONTROL PS: 0%
PS; 4 WAT, 4 GAI/HA, evaluation 3
  % CONTROL PS: 0%
PS; 4 WAT, 6 GAI/HA, evaluation 1
  % CONTROL PS: 0%
PS; 4 WAT, 6 GAI/HA, evaluation 2
  % CONTROL PS: 0%
PS; 4 WAT, 6 GAI/HA, evaluation 3
  % CONTROL PS: 0%
PS; 4 WAT, 8 GAI/HA, evaluation 1
  % CONTROL PS: 0%
PS; 4 WAT, 8 GAI/HA, evaluation 2
  % CONTROL PS: 0%
PS; 4 WAT, 8 GAI/HA, evaluation 3
  % CONTROL PS: 0%
PS; 5 WAT, 2 GAI/HA, evaluation 1
  % CONTROL PS: 0%
PS; 5 WAT, 2 GAI/HA, evaluation 2
  % CONTROL PS: 0%
PS; 5 WAT, 2 GAI/HA, evaluation 3
  % CONTROL PS: 0%
PS; 5 WAT, 3 GAI/HA, evaluation 1
  % CONTROL PS: 0%
PS; 5 WAT, 3 GAI/HA, evaluation 2
  % CONTROL PS: 0%
PS; 5 WAT, 3 GAI/HA, evaluation 3
  % CONTROL PS: 0%
PS; 5 WAT, 4 GAI/HA, evaluation 1
  % CONTROL PS: 0%
PS; 5 WAT, 4 GAI/HA, evaluation 2
  % CONTROL PS: 0%
PS; 5 WAT, 4 GAI/HA, evaluation 3
  % CONTROL PS: 0%
PS; 5 WAT, 6 GAI/HA, evaluation 1
  % CONTROL PS: 0%
PS; 5 WAT, 6 GAI/HA, evaluation 2
  % CONTROL PS: 0%
PS; 5 WAT, 6 GAI/HA, evaluation 3
  % CONTROL PS: 0%
PS; 5 WAT, 8 GAI/HA, evaluation 1
  % CONTROL PS: 0%
PS; 5 WAT, 8 GAI/HA, evaluation 2
  % CONTROL PS: 0%
PS; 5 WAT, 8 GAI/HA, evaluation 3
  % CONTROL PS: 0%
CI; 3 WAT, 2 GAI/HA, evaluation 1
  % CONTROL CI: 0%
CI; 3 WAT, 2 GAI/HA, evaluation 2
  % CONTROL CI: 0%
CI; 3 WAT, 2 GAI/HA, evaluation 3
  % CONTROL CI: 0%
CI; 3 WAT, 3 GAI/HA, evaluation 1
  % CONTROL CI: 20%
CI; 3 WAT, 3 GAI/HA, evaluation 2
  % CONTROL CI: 0%
CI; 3 WAT, 3 GAI/HA, evaluation 3
  % CONTROL CI: 0%
CI; 3 WAT, 4 GAI/HA, evaluation 1
  % CONTROL CI: 20%
CI; 3 WAT, 4 GAI/HA, evaluation 2
  % CONTROL CI: 0%
CI; 3 WAT, 4 GAI/HA, evaluation 3
  % CONTROL CI: 0%
CI; 3 WAT, 6 GAI/HA, evaluation 1
  % CONTROL CI: 20%
CI; 3 WAT, 6 GAI/HA, evaluation 2
  % CONTROL CI: 0%
CI; 3 WAT, 6 GAI/HA, evaluation 3
  % CONTROL CI: 0%
CI; 3 WAT, 8 GAI/HA, evaluation 1
  % CONTROL CI: 20%
CI; 3 WAT, 8 GAI/HA, evaluation 2
  % CONTROL CI: 0%
CI; 3 WAT, 8 GAI/HA, evaluation 3
  % CONTROL CI: 0%
CI; 4 WAT, 2 GAI/HA, evaluation 1
  % CONTROL CI: 0%
CI; 4 WAT, 2 GAI/HA, evaluation 2
  % CONTROL CI: 0%
CI; 4 WAT, 2 GAI/HA, evaluation 3
  % CONTROL CI: 0%
CI; 4 WAT, 3 GAI/HA, evaluation 1
  % CONTROL CI: 0%
CI; 4 WAT, 3 GAI/HA, evaluation 2
  % CONTROL CI: 0%
CI; 4 WAT, 3 GAI/HA, evaluation 3
  % CONTROL CI: 0%
CI; 4 WAT, 4 GAI/HA, evaluation 1
  % CONTROL CI: 20%
CI; 4 WAT, 4 GAI/HA, evaluation 2
  % CONTROL CI: 20%
CI; 4 WAT, 4 GAI/HA, evaluation 3
  % CONTROL CI: 0%
CI; 4 WAT, 6 GAI/HA, evaluation 1
  % CONTROL CI: 20%
CI; 4 WAT, 6 GAI/HA, evaluation 2
  % CONTROL CI: 20%
CI; 4 WAT, 6 GAI/HA, evaluation 3
  % CONTROL CI: 0%
CI; 4 WAT, 8 GAI/HA, evaluation 1
  % CONTROL CI: 20%
CI; 4 WAT, 8 GAI/HA, evaluation 2
  % CONTROL CI: 20%
CI; 4 WAT, 8 GAI/HA, evaluation 3
  % CONTROL CI: 0%
CI; 5 WAT, 2 GAI/HA, evaluation 1
  % CONTROL CI: 0%
CI; 5 WAT, 2 GAI/HA, evaluation 2
  % CONTROL CI: 0%
CI; 5 WAT, 2 GAI/HA, evaluation 3
  % CONTROL CI: 0%
CI; 5 WAT, 3 GAI/HA, evaluation 1
  % CONTROL CI: 50%
CI; 5 WAT, 3 GAI/HA, evaluation 2
  % CONTROL CI: 20%
CI; 5 WAT, 3 GAI/HA, evaluation 3
  % CONTROL CI: 0%
CI; 5 WAT, 4 GAI/HA, evaluation 1
  % CONTROL CI: 60%
CI; 5 WAT, 4 GAI/HA, evaluation 2
  % CONTROL CI: 30%
CI; 5 WAT, 4 GAI/HA, evaluation 3
  % CONTROL CI: 0%
CI; 5 WAT, 6 GAI/HA, evaluation 1
  % CONTROL CI: 60%
CI; 5 WAT, 6 GAI/HA, evaluation 2
  % CONTROL CI: 40%
CI; 5 WAT, 6 GAI/HA, evaluation 3
  % CONTROL CI: 0%
CI; 5 WAT, 8 GAI/HA, evaluation 1
  % CONTROL CI: 60%
CI; 5 WAT, 8 GAI/HA, evaluation 2
  % CONTROL CI: 60%
CI; 5 WAT, 8 GAI/HA, evaluation 3
  % CONTROL CI: 30%
